Where two headings read alike, the source gives them in different places.
What was measured:
[1] = tested on: Astroglial cells derived from the mouse forebrain; assay: Synthesis-stimulating activity on NGF (NGF level in culture medium by enzyme immunoassay); format: cell-based; details: Mus musculus, 24 h; for fold induction at 2 µg/mL / fold induction at 50 µg/mL: read-out: Synthesis-Stimulating Activity on NGF
Protocol: The activity of accelerating secretion of NGF was evaluated by the following method.
Each compound shown in Table 1 was dissolved in dimethylsulfoxide (DMSO) to adjust the concentration in the range of 2 mg/ml to 10 mg/ml.
Astroglial cells derived from the mouse forebrain (cells that synthesize and secrete NGF)
Astroglial cells obtained from the mouse forebrain were cultured into 8 x 10⁵ cells/ml in Dulbecco's modified Eagle's medium obtained from Gibco, glucose-rich, containing 20% fetal calf serum, 100 units/ml of penicillin and 100 µg/ml of streptomycin. A 0.1 ml/well aliquot was inoculated on a 96-well plate obtained from Falcon and having an area of 0.32 cm² per well and cultured at 37°C in an atmosphere of 5% CO₂. The culture medium was removed 72 hours later and instead, a 0.1 ml/well aliquot of fresh Dulbecco's modified Eagle's medium containing 0.5% bovine albumin powders obtained from Armour, 100 units/ml of penicillin and 100 µg/ml of streptomycin was supplemented to the system followed by culturing at 37°C in 5% CO₂. The above medium containing the compound each having various concentrations was exchanged 72 hours later. For the purpose of comparison, the medium which contains only DMSO was also prepared (control).
The synthesis-stimulating activity on NGF by the compound of the present invention is shown in terms of a ratio when the NGF level in the control containing only DMSO was made 1.0.

[2] = tested on: Cerebral cortical neuronal cells from an 18-day-old rat embryo; assay: Test on neurotrophic activity (living cells counted by fluorescein diacetate fluorescence, with or without hypoxic load); format: cell-based
Protocol: The neurotrophic activity was determined by the following method. Each compound was dissolved in DMSO to adjust the concentration in the range of 2 mg/ml to 10 mg/ml. Cerebral cortical neuronal cells from an 18-day-old rat embryo […] After 24 hours of incubation, the culture medium was removed and a 0.5 ml/well aliquot of a serum-free fresh DF medium containing the respective compounds having various concentrations, 5 µg/ml of transferrin, 5 µg/ml of insulin and 20 pmoles/ml of progesterone was supplemented to the system. For the purpose of comparison, the medium containing only DMSO was added was also prepared. At this stage, the two same plates were used. After 72 hours of incubation in various medium, hypoxia was loaded on one plate by reducing the concentration of oxygen to the minimum concentration of 1% using a N₂-O₂-CO₂ incubator (manufactured by Tabai, Model BNP-100) and culturing for 4 hours under the conditions. Another plate was cultured in an atmosphere of 5% CO₂ and 95% air, without hypoxic load. After the incubation was continued for further 48 hours, living cells were counted. The culture medium was removed and fluorescein diacetate (FDA) reagent was reacted. After washing with phosphate buffer, pH 7.4, the fluorescent intensity (E x 485/Em 530) was measured by CytoFlour^TM 2300, manufactured by Millipore.

[3] = no hypoxic load, ratio of fluorescent intensity to DMSO control = 1.0, read-out: Neurotrophic Activity No Hypoxic Load
[4] = 4 h, hypoxic load (1% oxygen, 4 hours), ratio of fluorescent intensity to DMSO control = 1.0, read-out: Neurotrophic Activity Hypoxic Load
[5] = 2 µg/ml, ratio to DMSO control = 1.0, 24 hours
[6] = 50 µg/ml, ratio to DMSO control = 1.0, 24 hours

Structure (SMILES)	fold induction at 20 µg/mL ([1]; ratio to DMSO control = 1.0)	fold induction at 100 µg/mL ([1]; ratio to DMSO control = 1.0)	viability at 2 µg/mL [2, 3] [%]	viability at 2 µg/mL [2, 4] [%]	fold induction at 2 µg/mL [1, 5]	fold induction at 10 µg/mL ([1]; ratio to DMSO control = 1.0)	fold induction at 50 µg/mL [1, 6]	viability at 10 µg/mL [2, 3] [%]	viability at 10 µg/mL [2, 4] [%]	also measured
OCCOc1ccc(-c2cc(-c3ccccn3)nc(-c3ccccn3)c2)cc1 [Compound 15, 2-[4-(2,2':6',2''-Terpyridin-4'-yl)phenoxy]ethanol]	1.7	4.2								
CCCCCCCCCCCC[N+](C)(C)Cc1ccc(-c2cc(-c3ccccn3)nc(-c3ccccn3)c2)cc1 [Compound 24, N-Dodecyl-N,N-dimethyl-N-[4-(2,2':6',2''-terpyridin-4'-yl)phenylmethyl]ammonium bromide]			200	190						fold induction at 2 µg/mL [1]: 2.1; fold induction at 50 µg/mL [1]: 1
c1cc[n+](Cc2ccc(-c3cc(-c4ccccn4)nc(-c4ccccn4)c3)cc2)cc1 [Compound 25, 1-[4-(2,2':6',2''-Terpyridin-4'-yl)phenylmethyl]pyridinium bromide]			140	110	1.2	1.1	2.9			
CCc1ccc(-c2cc(-c3ccccn3)nc(-c3ccccn3)c2)cc1 [Compound 7, 4'-(4-Ethylphenyl)-2,2':6',2''-terpyridine]					2.9	1	1.2			
Clc1ccc(-c2cc(-c3ccccn3)nc(-c3ccccn3)c2)cc1 [Compound 11, 4'-(4-Chlorophenyl)-2,2':6',2''-terpyridine]			170	160			2.2	130	140	fold induction at 5 µg/mL ([1]; ratio to DMSO control = 1.0): 4.7; fold induction at 17 µg/mL ([1]; 17 µg/ml, ratio to DMSO control = 1.0): 3.4
Cc1ccccc1-c1cc(-c2ccccn2)nc(-c2ccccn2)c1 [Compound 3, 4'-(2-Methylphenyl)-2,2':6',2''-terpyridine]			240	280	1.5	2.9		150	140	
C[N+](C)(C)Cc1ccc(-c2cc(-c3ccccn3)nc(-c3ccccn3)c2)cc1 [Compound 23, N,N,N-Trimethyl-N-[4-(2,2':6',2''-terpyridin-4'-yl)phenylmethyl]ammonium bromide]		1.3	250	300		3.2		130	160	fold induction at 30 µg/mL ([1]; ratio to DMSO control = 1.0): 5.6
c1ccc(-c2cc(-c3ccccn3)nc(-c3ccccn3)c2)cc1 [Compound 2, 4'-Phenyl-2,2':6',2''-terpyridine]	2.6	2.2	180	170				130	50	
c1ccc(-c2cccc(-c3ccccn3)n2)nc1 [Compound 1]			270	140				320	220	fold induction at 1 µg/mL ([1]; 1 µg/ml, ratio to DMSO control = 1.0): 2.3; fold induction at 5 µg/mL ([1]; ratio to DMSO control = 1.0): 3.5
c1ccc(-c2cc(-c3ccc(Cn4cccc4)cc3)cc(-c3ccccn3)n2)nc1 [Compound 22, 4'-[4-(1-pyrrorylmethyl)phenyl]-2,2':6',2''-terpyridine]			120	100	1.7	1.1		170	180	
COc1ccc(-c2cc(-c3ccccn3)nc(-c3ccccn3)c2)cc1 [Compound 13, 4'-(4-Methoxyphenyl)-2,2':6',2''-terpyridine]	1.7	1.8	180	70						
Cc1cccc(-c2cc(-c3ccccn3)nc(-c3ccccn3)c2)c1 [Compound 4, 4'-(3-Methylphenyl)-2,2':6',2''-terpyridine]			170	180	1.8	1.3	1.2			
CCCCCCCCC(CCCCCCCC)c1cc[n+](Cc2ccc(-c3cc(-c4ccccn4)nc(-c4ccccn4)c3)cc2)cc1 [Compound 28, 4-(1-Octylnonyl)-1-[4-(2,2':6',2''-terpyridin-4'-yl)phenylmethyl]pyridinium bromide]	3.6	2.5	260	310				130	380	
Nc1cccc(-c2cc(-c3ccccn3)nc(-c3ccccn3)c2)c1 [Compound 18, 4'-(3-Aminophenyl)-2,2':6',2''-terpyridine]		4.6	110	140		5.7				fold induction at 30 µg/mL ([1]; ratio to DMSO control = 1.0): 2
O=C(O)c1ccc(-c2cc(-c3ccccn3)nc(-c3ccccn3)c2)cc1 [Compound 19, 4-(2,2':6',2''-Terpyridin-4'-yl)benzoic acid]					2.4	2.4	3.6			
CCOc1ccc(-c2cc(-c3ccccn3)nc(-c3ccccn3)c2)cc1 [Compound 14, 4'-(4-Ethoxyphenyl)-2,2':6',2''-terpyridine]					2.1	4.8	2.9			
CCCCCCCCCc1cc[n+](Cc2ccc(-c3cc(-c4ccccn4)nc(-c4ccccn4)c3)cc2)cc1 [Compound 26, 4-Nonyl-1-[4-(2,2':6',2''-terpyridin-4'-yl)phenylmethyl]pyridinium bromide]	3	3	160	140				140	130	
Oc1ccccc1-c1cc(-c2ccccn2)nc(-c2ccccn2)c1 [Compound 12, 2-(2,2':6',2''-Terpyridin-4'-yl)phenol]	3.7	3								
CC(C)c1ccc(-c2cc(-c3ccccn3)nc(-c3ccccn3)c2)cc1 [Compound 8, 4'-(4-Isopropylphenyl)-2,2':6',2''-terpyridine]					1.7	3.2	2.4			
O=[N+]([O-])c1cccc(-c2cc(-c3ccccn3)nc(-c3ccccn3)c2)c1 [Compound 17, 4'-(3-Nitrophenyl)-2,2':6',2''-terpyridine]	1	2.8								
BrCc1ccc(-c2cc(-c3ccccn3)nc(-c3ccccn3)c2)cc1 [Compound 21, 4'-(4-Bromomethylphenyl)-2,2':6',2''-terpyridine]	2.7	5.2	140	200						
CCCCCCCCCCCCCCCCCc1cc[n+](Cc2ccc(-c3cc(-c4ccccn4)nc(-c4ccccn4)c3)cc2)cc1 [Compound 27, 4-Heptadecyl-1-[4-(2,2':6',2''-terpyridin-4'-yl)phenylmethyl]pyridinium bromide]	1	1.2	200	150				190	200	
